Reference: PubChem BioAssay (NCI)
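Following 48 hours of exposure in 96-well plates, responses at five concentrations were used to interpolate endpoints linearly. The concentration for 50% growth inhibition is given as GI50. TGI marks complete inhibition of growth.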

Legend:
Test in all cases: growth of human tumour cells (NCI), 48 h
[1] = system: ACHN renal
[2] = system: CAKI-1 renal
[3] = system: HCC-2998 colon
[4] = system: HCT-116 colon
[5] = system: M14 melanoma
[6] = system: MOLT-4 leukemia
[7] = system: NCI-H460 lung
[8] = system: NCI-H522 lung
[9] = system: OVCAR-4 ovarian
[10] = system: MDA-MB-435

`COc1cccc2c1-c1c(c3ccc([N+](=O)[O-])cc3c(=O)n1CCCN)C2=O` showed a GI50 [1] of 0.884 µM, a TGI [1] of 6.65 µM and a GI50 [2] of 15.1 µM. For the same molecule, the TGI [2] was 62.7 µM, the GI50 [3] was 3.02 µM and the TGI [3] was 7 µM. It also gave a GI50 [4] of 0.49 µM, a TGI [4] of 2.25 µM and a GI50 [5] of 1.54 µM. The TGI [5] was 3 µM, the GI50 [6] was 0.0293 µM and the TGI [6] was 0.34 µM. The GI50 [7] was 0.239 µM, the TGI [7] was 1.94 µM and the GI50 [8] was 0.043 µM. The TGI [8] was 1.89 µM, the GI50 [9] was 1.55 µM and the TGI [9] was 3.94 µM.

`Cc1cn(C2C=CC(CO)O2)c(=O)[nH]c1=O` (stereo not drawn) showed a TGI [1] greater than 1000 µM, a TGI [2] greater than 1000 µM and a TGI [3] greater than 1000 µM. For the same molecule, the TGI [4] was greater than 1000 µM, the TGI [5] was greater than 1000 µM and the TGI [10] was greater than 1000 µM. For the same molecule, the TGI [6] was greater than 1000 µM, the TGI [8] was greater than 1000 µM and the TGI [9] was greater than 1000 µM.

`CCC/C=C1\CCC(CN(C)C)C1=O` (stereo not drawn) was tested, and the TGI [1] was 11.2 µM, the TGI [2] was 4.59 µM and the TGI [3] was 29.5 µM. The TGI [4] was 23.1 µM, the TGI [5] was 16.1 µM and the TGI [6] was 12.6 µM. It also gave a TGI [7] greater than 63.2 µM, a TGI [8] of 3.87 µM and a TGI [9] of 38.6 µM.

With `Oc1ccc(O)c(-c2cc(-c3ccc(Cl)cc3)nn2-c2ccccc2)c1` the GI50 [1] was 18.6 µM, the TGI [1] was 32.6 µM and the GI50 [2] was 18.8 µM. It also gave a TGI [2] of 39.6 µM, a GI50 [3] of 2.58 µM and a TGI [3] of 4.98 µM. It also gave a GI50 [5] of 2.89 µM, a TGI [5] of 6.53 µM and a GI50 [10] of 14.9 µM. The TGI [10] was 32.1 µM, the GI50 [6] was 3.3 µM and the TGI [6] was greater than 100 µM. The GI50 [7] was 3.77 µM, the TGI [7] was greater than 100 µM and the GI50 [8] was 2.4 µM. The TGI [8] was 5.44 µM.

Work on `ON(Cc1ccccc1)C(=S)c1ccccc1` yielded a TGI [1] of 62.1 µM, a TGI [3] of 98.1 µM and a TGI [4] of 51.6 µM. The TGI [5] was 55.6 µM, the TGI [6] was greater than 41 µM and the TGI [7] was 22.3 µM. It also gave a TGI [8] of 28 µM and a TGI [9] greater than 100 µM.

`Cc1cccc(C(C)C)c1N1C(=O)C(=O)C(c2nc3ccccc3o2)C(=O)C1=O` was tested, and the TGI [1] was greater than 100 µM, the TGI [2] was greater than 100 µM and the TGI [3] was greater than 100 µM. It also gave a TGI [4] greater than 100 µM, a TGI [5] greater than 100 µM and a TGI [6] of 63.8 µM. It also gave a TGI [7] greater than 100 µM, a TGI [8] of 89.5 µM and a TGI [9] greater than 100 µM.

`O=C(CC1(O)C(=O)Nc2ccc(Br)cc21)c1ccc(Cl)cc1Cl` (stereo not drawn) showed a TGI [1] greater than 100 µM, a TGI [3] greater than 100 µM and a TGI [4] greater than 100 µM. It also gave a TGI [5] greater than 100 µM, a TGI [6] of 68 µM and a TGI [7] greater than 100 µM. For the same molecule, the TGI [8] was 70.5 µM and the TGI [9] was greater than 100 µM.

Molecule `O=[N+]([O-])c1ccc(-c2noc(-c3ccc(Cl)cc3)c2C2=NCCN2)cc1` has a TGI [1] greater than 100 µM, a TGI [2] greater than 100 µM and a TGI [3] greater than 100 µM. The TGI [4] was greater than 100 µM, the TGI [5] was greater than 100 µM and the TGI [6] was greater than 100 µM. For the same molecule, the TGI [7] was greater than 100 µM, the TGI [8] was greater than 100 µM and the TGI [9] was greater than 100 µM.

`COc1cc2c(cc1OC)C(Sc1ccc(SC)cc1)c1c(nc(N)c(C#N)c1N)O2` (stereo not drawn) showed a GI50 [1] of 1.69 µM, a TGI [1] of 3.06 µM and a GI50 [3] of 1.8 µM. It also gave a TGI [3] of 3.28 µM, a GI50 [4] of 1.62 µM and a TGI [4] of 3.01 µM. For the same molecule, the GI50 [5] was 1.74 µM, the TGI [5] was 3.24 µM and the GI50 [10] was 1.75 µM. For the same molecule, the TGI [10] was 3.23 µM, the GI50 [6] was 1.07 µM and the TGI [6] was 4.08 µM. The GI50 [7] was 2.08 µM, the TGI [7] was 4.49 µM and the GI50 [8] was 1.64 µM. The TGI [8] was 3.03 µM, the GI50 [9] was 1.64 µM and the TGI [9] was 3.27 µM.

Work on `CCOC(=O)c1c(C)n(Cc2ccccc2)c2c1cc(O)c1[nH]c(Cc3ccccc3)nc12` yielded a GI50 [1] of 23 µM, a TGI [1] greater than 100 µM and a GI50 [2] of 7.77 µM. It also gave a TGI [2] of 21.8 µM, a TGI [3] of 2.04 µM and a GI50 [4] of 5.91 µM. For the same molecule, the TGI [4] was greater than 43.5 µM, the GI50 [5] was greater than 50.7 µM and the TGI [5] was greater than 100 µM. The GI50 [10] was greater than 42.8 µM, the TGI [10] was greater than 100 µM and the GI50 [7] was 4.23 µM. It also gave a TGI [7] greater than 100 µM, a GI50 [9] of 10.9 µM and a TGI [9] greater than 57.3 µM.

`CC(=O)NC1C(OCc2ccccc2)OC(CO)C(O)C1OC(C)C(=O)N[C@@H](C)C(=O)N[C@H](CCC(=O)OCCNc1c2ccccc2nc2cccc([N+](=O)[O-])c12)C(N)=O` (stereo partly drawn) showed a TGI [1] of 0.0071 µM, a TGI [3] of 0.00378 µM and a TGI [4] of 0.00243 µM. For the same molecule, the TGI [5] was 0.00251 µM, the TGI [6] was greater than 0.1 µM and the TGI [7] was 0.00137 µM. It also gave a TGI [8] of 0.00669 µM and a TGI [9] of 0.0116 µM.

`COC(=O)C1=C(c2ccc(OC)c(OC)c2)OC(c2cc(OC)c(OC)c(OC)c2)C1` (stereo not drawn) was tested, and the TGI [1] was greater than 100 µM, the TGI [2] was greater than 100 µM and the TGI [3] was greater than 100 µM. For the same molecule, the TGI [5] was greater than 100 µM, the TGI [7] was greater than 100 µM and the TGI [9] was greater than 100 µM.

`CCN(CC)c1ccc(N=Nc2ccc([N+](=O)[O-])cc2OC(=O)/C=C/c2ccccc2)c(OC(=O)/C=C/c2ccccc2)c1` showed a TGI [1] greater than 100 µM, a TGI [2] greater than 100 µM and a TGI [3] greater than 100 µM. The TGI [4] was greater than 100 µM, the TGI [5] was greater than 100 µM and the TGI [6] was greater than 100 µM. The TGI [7] was 11.1 µM, the TGI [8] was greater than 100 µM and the TGI [9] was greater than 100 µM.

Work on `O=C1NC(=O)C(=Nc2cccc3c(=O)[nH][nH]c(=O)c23)C(c2nc3ccccc3s2)C1=O` (stereo not drawn) yielded a TGI [1] greater than 100 µM, a TGI [2] greater than 100 µM and a TGI [3] greater than 100 µM. For the same molecule, the TGI [4] was greater than 100 µM, the TGI [5] was greater than 100 µM and the TGI [6] was greater than 100 µM. For the same molecule, the TGI [7] was greater than 100 µM, the TGI [8] was greater than 100 µM and the TGI [9] was greater than 100 µM.

Molecule `Cc1ccc(/C=C2\CN(C(=O)C(Cl)Cl)C/C(=C\c3ccc(C)cc3)C2=O)cc1` has a GI50 [1] of 0.244 µM, a TGI [1] of 0.62 µM and a GI50 [2] of 0.273 µM. For the same molecule, the TGI [2] was 1.01 µM, the GI50 [3] was 0.176 µM and the TGI [3] was 0.33 µM. For the same molecule, the GI50 [4] was 0.0654 µM, the TGI [4] was 0.194 µM and the GI50 [5] was 0.261 µM. It also gave a TGI [5] of 0.784 µM, a GI50 [10] of 0.197 µM and a TGI [10] of 0.408 µM. For the same molecule, the GI50 [9] was 0.322 µM and the TGI [9] was greater than 100 µM.

For `COC(=O)C(=CNC(N)=O)C(=O)OC`, the TGI [1] was greater than 100 µM, the TGI [2] was greater than 100 µM and the TGI [4] was greater than 100 µM. For the same molecule, the TGI [5] was greater than 100 µM, the TGI [10] was greater than 100 µM and the TGI [6] was greater than 100 µM. For the same molecule, the TGI [7] was greater than 100 µM and the TGI [8] was greater than 100 µM.

For `C[N+](C)(C)CC1CCC/C1=N/O` (stereo not drawn), the TGI [1] was greater than 100 µM, the TGI [3] was greater than 100 µM and the TGI [4] was 46 µM. The TGI [5] was greater than 100 µM, the TGI [6] was greater than 100 µM and the TGI [7] was greater than 100 µM. For the same molecule, the TGI [8] was greater than 100 µM and the TGI [9] was greater than 100 µM.

For `COc1cc(-c2cc(-c3ccc(Nc4ccnc5cc(Cl)ccc45)cc3)nc(N3CCOCC3)n2)cc(OC)c1OC`, the GI50 [1] was 2.34 µM, the TGI [1] was 5.02 µM and the GI50 [3] was 3.64 µM. For the same molecule, the TGI [3] was greater than 100 µM, the GI50 [4] was 1.36 µM and the TGI [4] was 3.34 µM. It also gave a GI50 [10] of 1.75 µM, a TGI [10] of 3.48 µM and a GI50 [6] of 2.58 µM. It also gave a TGI [6] of 9.2 µM, a GI50 [7] of 1.87 µM and a TGI [7] of 3.89 µM. The GI50 [8] was 2.03 µM, the TGI [8] was 5.03 µM and the GI50 [9] was 1.89 µM. The TGI [9] was 4.3 µM.

Molecule `Cn1c(=O)c(NC(=O)C(Cl)(Cl)Cl)nc2ccccc21` has a TGI [2] greater than 100 µM, a TGI [3] greater than 100 µM and a TGI [4] greater than 100 µM. The TGI [5] was greater than 100 µM, the TGI [6] was greater than 100 µM and the TGI [7] was greater than 100 µM. For the same molecule, the TGI [8] was greater than 100 µM.

In the case of `CN=C(NC(=S)N(C)C)N(C)C`, the TGI [1] was greater than 100 µM, the TGI [2] was greater than 100 µM and the TGI [3] was greater than 100 µM. It also gave a TGI [4] greater than 100 µM, a TGI [5] greater than 100 µM and a TGI [6] greater than 100 µM. For the same molecule, the TGI [7] was greater than 100 µM, the TGI [8] was greater than 100 µM and the TGI [9] was greater than 100 µM.
